Measured values: ChEMBL document CHEMBL4483862, “Open-source discovery of chemical leads for next-generation chemoprotective antimalarials” (2018)

System: Plasmodium berghei
Assay: Luciferase/luciferin-expressing antifolate-resistant parasites were used to infect a culture of HepG2 cells that were pre-incubated with compounds. Infected hepatocytes emit light due to the luciferase reaction. Assay results are presented as the percent inhibition of light emission compared to control. […]
Assay type: functional
Conditions: sporozoite; for IC90: read-out: LUCIFERASE INFECTION ASSAY - IC90
[1] = read-out: LUCIFERASE INFECTION ASSAY - IC50

| SMILES | IC90 | IC50 [1] | other results |
| --- | --- | --- | --- |
| COc1ccc(C(C#N)=C2C=CC(=NO)C=C2)cc1 | > 13.1 µM | – | IC50 (FFLUC_HILL_SLOPE 2.5, FFLUC_R_SQUARED 0.687, PBLUC_HILL_SLOPE 18.8, PBLUC_R_SQUARED 0.229, read-out: LUCIFERASE INFECTION ASSAY - IC50): 12.9 µM |
| Cc1cccc(C)c1NC(=O)Nc1nc(C(N)Cc2ccc(C(F)(F)F)cc2)cs1 (configuration not stated) | > 7.6 µM | – | IC50 (PBLUC_HILL_SLOPE 11.8, PBLUC_R_SQUARED 0.0609, read-out: LUCIFERASE INFECTION ASSAY - IC50): 6.88 µM |
| CS(=O)(=O)c1ccc(N2CCCN(c3ccc(C(F)(F)F)cn3)CC2)c([N+](=O)[O-])c1 | > 10 µM | > 10 µM | – |
| O=c1c2ccccc2ncn1CCOCCOc1ccccc1-c1ccccc1 | > 8.54 µM | – | IC50 (HEPG2TOX_HILL_SLOPE 7.75, HEPG2TOX_R_SQUARED 0.123, read-out: LUCIFERASE INFECTION ASSAY - IC50): > 8.54 µM |
| CC(=O)Nc1ccc(/C=C2\S/C(=N\c3cccc4ccccc34)N(Cc3ccccc3F)C2=O)cc1 | > 10 µM | 6.52 µM | – |
| COc1ccc(S(=O)(=O)N2CCN(c3cc(C)c4ccccc4n3)CC2)cc1 | > 8.3 µM | > 8.3 µM | – |
| COc1ccc(-c2csc(NC(=O)CN3CCN(c4ncnc5c4cnn5C)CC3)n2)cc1 | 3.88 µM | – | IC50 (HEPG2TOX_HILL_SLOPE 1.28, 1.59, HEPG2TOX_R_SQUARED 0.849, 0.471, PBLUC_HILL_SLOPE 15.7, 12.8, PBLUC_R_SQUARED 0.495, 0.575, read-out: LUCIFERASE INFECTION ASSAY - IC50): 3.31 µM |
| COC(=O)c1ccc(O)c(CSc2ccc(Cl)cc2)c1 | > 10.7 µM | – | IC50 (FFLUC_HILL_SLOPE 15.4, FFLUC_R_SQUARED 0.267, PBLUC_HILL_SLOPE 7.94, PBLUC_R_SQUARED 0.227, read-out: LUCIFERASE INFECTION ASSAY - IC50): 8.54 µM |
| Cc1ccccc1Nc1nc(N)nc(CSc2nc(=O)c3c(-c4cccs4)csc3[nH]2)n1 | > 10 µM | > 10 µM | – |
| COc1ccc(NS(=O)(=O)c2cc(NC(=O)c3cc(C4CC4)on3)ccc2N2CCCCC2)cc1 | > 10 µM | – | IC50 (FFLUC_HILL_SLOPE 8.45, FFLUC_R_SQUARED 0.551, read-out: LUCIFERASE INFECTION ASSAY - IC50): > 10 µM |
| O=C(NC(=S)NNc1ncc(C(F)(F)F)cc1Cl)c1ccccc1 | 0.377 µM | – | IC50 (FFLUC_HILL_SLOPE 148, FFLUC_R_SQUARED 0.758, HEPG2TOX_HILL_SLOPE 0.501, HEPG2TOX_R_SQUARED 0.887, PBLUC_HILL_SLOPE 13.6, PBLUC_R_SQUARED 0.819, read-out: LUCIFERASE INFECTION ASSAY - IC50): 0.321 µM |
| COc1ccc2c(-c3ccccc3)cc(SC(C)C(=O)N3CCNC3=O)nc2c1 (configuration not stated) | 1.25 µM | – | IC50 (FFLUC_HILL_SLOPE 2.47, FFLUC_R_SQUARED 0.615, PBLUC_HILL_SLOPE 18.2, PBLUC_R_SQUARED 0.514, read-out: LUCIFERASE INFECTION ASSAY - IC50): 1.11 µM |
| Cc1ccc(NC(=O)c2cc(C(C)(C)C)n(-c3ccccc3)c2C)cc1 | 4.46 µM | 0.52 µM | – |
| Cc1cc(O)c(C(C)C)cc1NC1=NC(=O)S/C1=C\c1cc(Cl)ccc1OCC(=O)Nc1ccc(Cl)cc1 | 3.24 µM | 2.98 µM | – |
| CC(=O)NC1=C(N(C)C2CCS(=O)(=O)C2)C(=O)c2ccccc2C1=O (configuration not stated) | > 10 µM | – | IC50 (FFLUC_HILL_SLOPE 10.5, FFLUC_R_SQUARED 0.371, PBLUC_HILL_SLOPE 1.29, PBLUC_R_SQUARED 0.482, read-out: LUCIFERASE INFECTION ASSAY - IC50): 5.96 µM |
| N#Cc1cccc(NC(=O)c2cc(-c3cccnc3)nc3c2cnn3Cc2ccccc2Cl)c1 | > 10 µM | > 10 µM | – |
| Oc1ccc(-c2cnc3cnc(-c4ccc(Cl)cc4Cl)cn23)cc1 | 3.44 µM | – | IC50 (HEPG2TOX_HILL_SLOPE 1.37, HEPG2TOX_R_SQUARED 0.776, PBLUC_HILL_SLOPE 1.58, PBLUC_R_SQUARED 0.733, read-out: LUCIFERASE INFECTION ASSAY - IC50): 0.858 µM |
| Cc1nn(-c2ccccc2)c2sc(C(=O)NNc3nc(CN4CCOCC4)nc4scc(-c5ccccc5)c34)cc12 | > 10 µM | – | IC50 (HEPG2TOX_HILL_SLOPE 1.59, 8.29, HEPG2TOX_R_SQUARED 0.901, 0.855, PBLUC_HILL_SLOPE 12, PBLUC_R_SQUARED 0.591, read-out: LUCIFERASE INFECTION ASSAY - IC50): 8.46 µM |
| Cc1c2cnn(C)c(=O)c2c(C)n1Cc1cccs1 | > 12.1 µM | – | IC50 (PBLUC_HILL_SLOPE 0.733, PBLUC_R_SQUARED 0.45, read-out: LUCIFERASE INFECTION ASSAY - IC50): 4.19 µM |
| Cc1sc2nc(-c3cccs3)nc(N3CCN(C(=O)c4ccccc4)CC3)c2c1C | > 10 µM | – | IC50 (PBLUC_HILL_SLOPE 1.78, PBLUC_R_SQUARED 0.529, read-out: LUCIFERASE INFECTION ASSAY - IC50): 4.85 µM |
| COc1ccc2[nH]c(C(=O)Nc3ccc(F)cc3)c(C)c2c1 | 4.28 µM | – | IC50 (HEPG2TOX_HILL_SLOPE 0.946, HEPG2TOX_R_SQUARED 0.313, PBLUC_HILL_SLOPE 15.5, PBLUC_R_SQUARED 0.583, read-out: LUCIFERASE INFECTION ASSAY - IC50): 3.72 µM |

| SMILES | IC90 | IC50 [1] | other results |
| --- | --- | --- | --- |
| CCc1cccc2c(C(=O)CN3CCC(C(=O)Nc4ccc5c(c4)OCO5)CC3)c[nH]c12 | > 10 µM | > 10 µM | – |
| COc1c(Cl)cc(Br)c(OC)c1C(=O)NC(=O)Nc1cc(C(F)(F)F)cc(C(F)(F)F)c1 | 2.27 µM | – | IC50 (FFLUC_HILL_SLOPE 14.8, FFLUC_R_SQUARED 0.569, HEPG2TOX_HILL_SLOPE 7.93, HEPG2TOX_R_SQUARED 0.303, PBLUC_HILL_SLOPE 13, PBLUC_R_SQUARED 0.4, read-out: LUCIFERASE INFECTION ASSAY - IC50): 1.92 µM |
| CC(C)Cc1ccc(CN2CCC3(CC2)C(=O)N(CC(C)C)C(=O)N3C)cc1 | > 8.56 µM | – | IC50 (HEPG2TOX_HILL_SLOPE 2.88, HEPG2TOX_R_SQUARED 0.972, PBLUC_HILL_SLOPE 3.02, PBLUC_R_SQUARED 0.492, read-out: LUCIFERASE INFECTION ASSAY - IC50): 5.03 µM |
| Cc1cc(NC(=O)Cn2ncc(Br)c(Br)c2=O)n(C)n1 | > 10 µM | – | IC50 (FFLUC_HILL_SLOPE 13, FFLUC_R_SQUARED 0.376, HEPG2TOX_HILL_SLOPE 25.8, HEPG2TOX_R_SQUARED 0.794, PBLUC_HILL_SLOPE 3.09, PBLUC_R_SQUARED 0.556, read-out: LUCIFERASE INFECTION ASSAY - IC50): 5.35 µM |
| COc1ccc(/N=c2\scc(-c3ccc(OC(F)F)cc3)n2/N=C/c2ccccc2[N+](=O)[O-])cc1 | 7.35 µM | – | IC50 (FFLUC_HILL_SLOPE 12.1, FFLUC_R_SQUARED 0.633, PBLUC_HILL_SLOPE 109, PBLUC_R_SQUARED 0.183, read-out: LUCIFERASE INFECTION ASSAY - IC50): 7.2 µM |
| Cc1cc(N(C)C(C)c2ccc(-n3cnc4ccccc43)cc2)n2ncnc2n1 (configuration not stated) | > 10 µM | – | IC50 (HEPG2TOX_HILL_SLOPE 9.21, HEPG2TOX_R_SQUARED 0.124, PBLUC_HILL_SLOPE 9.5, PBLUC_R_SQUARED 0.615, read-out: LUCIFERASE INFECTION ASSAY - IC50): 8.2 µM |
| Cc1ccc(S(=O)(=O)NC(=O)c2ccc(Cl)nc2Cl)cc1 | > 10 µM | > 10 µM | – |
| CN(C)C(=O)c1cccc(-c2cnc3c(NC=O)cc(-c4ccsc4)cn23)c1 | > 8.45 µM | > 8.45 µM | – |
| Cc1cc(C(=O)CN2CCN(C)CC2)c(C)n1C(c1ccccc1)c1ccccc1 | > 10 µM | – | IC50 (PBLUC_HILL_SLOPE 2.18, PBLUC_R_SQUARED 0.339, read-out: LUCIFERASE INFECTION ASSAY - IC50): 6.77 µM |
| COc1ccc(C(=O)c2sc(Nc3ccccc3C)c(C(=O)Nc3ccccc3C)c2N)cc1 | > 10 µM | 5.95 µM | – |
| Clc1ccccc1-c1nc2ccnc(NCc3ccccc3)c2[nH]1 | 4.04 µM | – | IC50 (HEPG2TOX_HILL_SLOPE 1.64, HEPG2TOX_R_SQUARED 0.835, PBLUC_HILL_SLOPE 9.56, PBLUC_R_SQUARED 0.749, read-out: LUCIFERASE INFECTION ASSAY - IC50): 3.21 µM |
| O=c1c(Cl)c(Cl)cnn1-c1ccc(S(=O)(=O)NCCCOCC2CC2)cc1 | 4.65 µM | – | IC50 (HEPG2TOX_HILL_SLOPE 15.7, HEPG2TOX_R_SQUARED 0.58, PBLUC_HILL_SLOPE 8.81, PBLUC_R_SQUARED 0.0863, read-out: LUCIFERASE INFECTION ASSAY - IC50): 3.62 µM |
| CCOC(=O)Cn1c(=O)c2c3c(sc2n(Cc2ccccc2)c1=O)CCCC3 | > 8.28 µM | – | IC50 (FFLUC_HILL_SLOPE 1.15, FFLUC_R_SQUARED 0.544, PBLUC_HILL_SLOPE 1.19, PBLUC_R_SQUARED 0.498, read-out: LUCIFERASE INFECTION ASSAY - IC50): 3.9 µM |
| CCCNC(=O)c1c(NC(=O)c2ccc(C)cc2)nc2ccc(C)cn12 | 4.76 µM | – | IC50 (FFLUC_HILL_SLOPE 15.6, FFLUC_R_SQUARED 0.337, HEPG2TOX_HILL_SLOPE 1.6, HEPG2TOX_R_SQUARED 0.209, PBLUC_HILL_SLOPE 10.4, PBLUC_R_SQUARED 0.336, read-out: LUCIFERASE INFECTION ASSAY - IC50): 3.85 µM |
| COc1cccc(C(=O)Nc2nc3ccc(C)cn3c2C(=O)NCC(C)C)c1 | 4.69 µM | 2.62 µM | – |
| CCCc1nc(C)c(C(=O)Nc2nccn2Cc2ccccc2)s1 | > 10 µM | > 10 µM | – |
| O=c1cc(N2CCN(CCOc3ccccc3Cl)CC2)nc2ccccn12 | > 10 µM | > 10 µM | – |
| Cc1ccc(CNC(=O)c2ccc(CN3CCc4ccccc4C3)cc2)cc1 | > 8.91 µM | – | IC50 (PBLUC_HILL_SLOPE 3.55, PBLUC_R_SQUARED 0.838, read-out: LUCIFERASE INFECTION ASSAY - IC50): 6.04 µM |
| O=C(NCc1cn2ccccc2n1)c1cccc(S(=O)(=O)N2CCc3ccccc3C2)c1 | > 10 µM | > 10 µM | – |
| CNC(=O)c1cccc(NC(=O)c2ccc3[nH]c4c(c3c2)CCCC4)c1 | > 10 µM | – | IC50 (HEPG2TOX_HILL_SLOPE 15.2, HEPG2TOX_R_SQUARED 0.62, read-out: LUCIFERASE INFECTION ASSAY - IC50): > 10 µM |
